Laboratory results taken from patent US20240092799A1, “MNK INHIBITORS” (Hepagene Therapeutics (HK) Limited, priority 2020, published 2024).

Target: MNK2 (Homo sapiens (Human), UniProt Q9HBH9)
Assay: MNK Biochemical Enzymatic Assay (ADP-Glo), MNK2 binding assay
Protocol: MNK Biochemical Enzymatic Assay. This protocol establishes the binding assays for MNK1 and MNK2 using ADP-Glo assay. MNK phosphorylates the substrate and converts ATP to ADP, which was detected by Envision and used to reflect the reminding activity of MNK. Reagents and equipment used in the assay are listed below, followed by the protocol.
• a) Add 50 μL compound to 384-well dilution plate • b) Dilute compound 1:3 in succession in DMSO for each column for 10+0 pts (refer to dilution plate map) • c) Transfer 0.1 μL diluted compound solution in each row to 384 assay plate using Echo, each column containing 2 replicates (refer to assay plate map) • d) Add 5 μL enzyme working solution to 384-well assay plate, centrifuge 1000 RPM for 1 min • e) Incubate at 25° C. for 15 min • f) Add 5 μL substrate working solution to initiate reaction • g) Incubate at 25° C. for 60 min • h) Add 10 μL ADP Glo reagent, centrifuge 1000 RPM for 1 min • i) Incubate at 25° C. for 60 min • j) Add 20 μL kinase detection reagent, centrifuge 1000 RPM for 1 min • k) Incubate at 25° C. for 60 min • l) Read on Envision for US LUM as RLU • m) Data analysis: IC50s were determined based on a non-linear regression analysis of data collected.

Sequence of MNK2 (Q9HBH9 whole entry): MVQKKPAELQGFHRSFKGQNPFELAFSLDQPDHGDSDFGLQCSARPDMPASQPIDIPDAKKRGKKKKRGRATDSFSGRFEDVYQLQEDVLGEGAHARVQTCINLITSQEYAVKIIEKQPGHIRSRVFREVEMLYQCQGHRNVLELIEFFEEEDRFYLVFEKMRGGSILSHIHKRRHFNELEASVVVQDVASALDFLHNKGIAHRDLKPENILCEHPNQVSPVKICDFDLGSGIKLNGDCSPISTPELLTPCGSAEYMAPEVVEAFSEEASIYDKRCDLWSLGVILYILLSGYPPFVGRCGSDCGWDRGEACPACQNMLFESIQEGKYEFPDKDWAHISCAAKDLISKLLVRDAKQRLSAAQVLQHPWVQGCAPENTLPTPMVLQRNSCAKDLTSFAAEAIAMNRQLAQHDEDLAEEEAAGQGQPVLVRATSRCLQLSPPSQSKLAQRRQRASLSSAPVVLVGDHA

O=C1NC2(CCCCC2)c2cc(Nc3ncnc4sc5c(c34)CCC(C(=O)O)C5)sc21 (stereo not drawn) [Compound XXV-6, 4-((6′-Oxo-5′,6′-dihydrospiro[cyclohexane-1,4′-thieno[2,3-c]pyrrol]-2′-yl)amino)-5,6,7,8-tetrahydrobenzo[4,5]thieno[2,3-d]pyrimidine-7-carboxylic acid]
IC50: 10 to 100 nM

O=C1NC2(CCCCC2)c2cc(Nc3cc(N4CCC(F)(F)CC4)ncn3)sc21 [Compound XXIII-L, 2′-((6-(4,4-Difluoropiperidin-1-yl)pyrimidin-4-yl)amino)spiro[cyclohexane-1,4′-thieno[2,3-c]pyrrol]-6′(5′H)-one]
IC50: > 1000 nM

O=C1NC2(CCCCC2)c2cc(Nc3cc(N[C@@H]4CCCOC4)ncn3)sc21 [Compound XXIV-F, (R)-2′-((6-((tetrahydro-2H-pyran-3-yl)amino)pyrimidin-4-yl)amino)spiro[cyclohexane-1,4′-thieno[2,3-c]pyrrol]-6′(5′H)-one]
IC50: 10 to 100 nM

COCCCNc1cc(Nc2cc(C)c3c([n+]2[O-])C2(CCCCC2)NC3=O)ncn1 [Compound XXIX-C, 2′-((6-((3-methoxypropyl)amino)pyrimidin-4-yl)amino)-4′-methyl-5′-oxo-5′,6′-dihydrospiro[cyclohexane-1,7′-pyrrolo[3,4-b]pyridine] 1′-oxide]
IC50: 10 to 100 nM

O=C1NC2(CCCCC2)c2cc(Nc3cc(Cl)ncn3)sc21 [Compound XXIII-G, 2′-((6-Chloropyrimidin-4-yl)amino)spiro[cyclohexane-1,4′-thieno[2,3-c]pyrrol]-6′(5′H)-one]
IC50: 10 to 100 nM

Cc1cc(Nc2ncnc3[nH]ncc23)[n+]([O-])c2c1C(=O)NC21CCCCC1 [Compound XXIX-AAH, 2′-((1H-pyrazolo[3,4-d]pyrimidin-4-yl)amino)-4′-methyl-5′-oxo-5′,6′-dihydrospiro[cyclohexane-1,7′-pyrrolo[3,4-b]pyridine] 1′-oxide]
IC50: 10 to 100 nM

Cc1cc(Nc2cc(Nc3cccnc3)ncn2)[n+]([O-])c2c1C(=O)NC21CCCCC1 [Compound XXIX-AJ, 4′-methyl-5′-oxo-2′-((6-(pyridin-3-ylamino)pyrimidin-4-yl)amino)-5′,6′-dihydrospiro[cyclohexane-1,7′-pyrrolo[3,4-b]pyridine] 1′-oxide]
IC50: 10 to 100 nM

O=C1NC2(CCCCC2)c2cc(Nc3cc(NCC4CCCO4)ncn3)sc21 (stereo not drawn) [Compound XXIII-Q, 2′-((6-(((tetrahydrofuran-2-yl)methyl)amino)pyrimidin-4-yl)amino)spiro[cyclohexane-1,4′-thieno[2,3-c]pyrrol]-6′(5′H)-one]
IC50: 10 to 100 nM

Cc1cc(Nc2cc(N[C@@H]3CCC[C@H]3O)ncn2)[n+]([O-])c2c1C(=O)NC21CCCCC1 [Compound XXIX-X, 2′-((6-(((1R,2R)-2-hydroxycyclopentyl)amino)pyrimidin-4-yl)amino)-4′-methyl-5′-oxo-5′,6′-dihydrospiro[cyclohexane-1,7′-pyrrolo[3,4-b]pyridine] 1′-oxide]
IC50: 10 to 100 nM

COc1c(NC(=O)C2CC2)ncnc1Nc1cc2c(s1)C(=O)NC21CCCCC1 [Compound XX-B, N-(5-Methoxy-6-((6′-oxo-5′,6′-dihydrospiro[cyclohexane-1,4′-thieno[2,3-c]pyrrol]-2′-yl)amino)pyrimidin-4-yl)cyclopropanecarboxamide]
IC50: 100 to 1000 nM

Cc1cccnc1Nc1cc(Nc2cc3c(s2)C(=O)NC32CCCCC2)ncn1 [Compound XXIII-S, 2′-((6-((3-methylpyridin-2-yl)amino)pyrimidin-4-yl)amino)spiro [cyclohexane-1,4′-thieno[2,3-c]pyrrol]-6′(5′H)-one]
IC50: 100 to 1000 nM

Cc1cc(Nc2ccnc(N[C@H]3CCOC3)c2)[n+]([O-])c2c1C(=O)NC21CCCCC1 [Compound XXIX-H, (S)-4′-methyl-5′-oxo-2′-((2-((tetrahydrofuran-3-yl)amino)pyridin-4-yl)amino)-5′,6′-dihydrospiro[cyclohexane-1,7′-pyrrolo[3,4-b]pyridine] 1′-oxide]
IC50: 100 to 1000 nM
